In publication PMC4501499 (MedChemComm, 2015):

What was measured:
[1] = in vitro microsomal stability with NADPH, LC/MS; conditions: rat liver microsomes
[2] = molecular target: T1, rat UT-A1 (Rattus norvegicus, UniProt Q62668); assay: UT-A1 inhibition assay; format: cell-based; conditions: for UT inhibition activity (in words): text summary of urea transport inhibition (UT-A1 / UT-B, Table 1)
T1 sequence (Q62668 1-929): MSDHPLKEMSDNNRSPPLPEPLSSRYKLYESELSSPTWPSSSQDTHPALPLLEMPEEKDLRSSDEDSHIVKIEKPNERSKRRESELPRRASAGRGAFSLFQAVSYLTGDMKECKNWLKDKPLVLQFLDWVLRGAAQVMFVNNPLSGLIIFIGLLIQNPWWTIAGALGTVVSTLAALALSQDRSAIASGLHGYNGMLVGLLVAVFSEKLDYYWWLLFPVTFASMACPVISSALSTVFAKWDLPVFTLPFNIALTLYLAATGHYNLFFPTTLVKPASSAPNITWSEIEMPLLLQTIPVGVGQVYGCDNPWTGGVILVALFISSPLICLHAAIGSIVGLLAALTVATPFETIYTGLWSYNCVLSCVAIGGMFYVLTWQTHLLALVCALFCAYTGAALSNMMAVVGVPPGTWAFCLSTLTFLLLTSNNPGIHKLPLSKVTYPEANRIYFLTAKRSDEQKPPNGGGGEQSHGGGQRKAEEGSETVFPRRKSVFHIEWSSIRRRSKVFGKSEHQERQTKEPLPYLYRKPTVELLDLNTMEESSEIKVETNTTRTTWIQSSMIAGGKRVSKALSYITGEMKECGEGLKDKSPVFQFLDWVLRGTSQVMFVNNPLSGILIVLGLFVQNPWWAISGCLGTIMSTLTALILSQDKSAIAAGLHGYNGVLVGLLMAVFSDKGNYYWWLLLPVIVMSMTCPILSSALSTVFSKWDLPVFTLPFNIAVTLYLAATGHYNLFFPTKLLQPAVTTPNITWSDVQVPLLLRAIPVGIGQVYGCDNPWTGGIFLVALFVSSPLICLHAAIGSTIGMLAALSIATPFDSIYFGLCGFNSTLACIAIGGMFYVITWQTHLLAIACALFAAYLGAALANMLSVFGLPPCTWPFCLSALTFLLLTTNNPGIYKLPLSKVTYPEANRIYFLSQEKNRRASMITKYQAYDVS

[3] = molecular target: T2, UT-B (Rattus norvegicus, UniProt P97689); assay: UT-B inhibition assay; format: cell-based; conditions: concentration-inhibition fit
T2 sequence (P97689 1-384): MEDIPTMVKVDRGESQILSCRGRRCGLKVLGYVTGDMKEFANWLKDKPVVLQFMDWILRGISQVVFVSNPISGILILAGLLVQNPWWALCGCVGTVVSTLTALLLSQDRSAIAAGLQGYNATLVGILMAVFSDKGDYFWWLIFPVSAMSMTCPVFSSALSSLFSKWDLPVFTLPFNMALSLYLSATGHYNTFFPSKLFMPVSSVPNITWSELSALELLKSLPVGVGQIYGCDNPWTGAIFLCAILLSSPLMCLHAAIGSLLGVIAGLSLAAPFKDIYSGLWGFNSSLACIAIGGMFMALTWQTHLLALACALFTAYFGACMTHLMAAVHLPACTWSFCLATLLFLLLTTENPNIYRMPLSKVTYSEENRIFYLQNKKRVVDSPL

Row | Structure (SMILES) | [M+H-16] metabolite by LC/MS [1] | UT inhibition activity (in words) [2] | further results
1 | CS(=O)(=O)Nc1ccc2c(c1)C(=O)c1cc(NS(C)(=O)=O)ccc1-2 [compound 9] | – | strong inhibition | –
2 | CC(=O)Nc1ccc2c(c1)C(=O)c1cc(NC(C)=O)ccc1-2 [compound 3, 2,7-bisacetamido fluoren-9-one] | detected | – | Hill coefficient, UT-B [3]: 1.1; extent of UT-A1 inhibition at higher concentrations ([2]; higher concentrations): complete inhibition; reversibility of UT-A1 inhibition ([2]; incubation near IC50, then washing with PBS): complete reversibility; time to complete inhibition of UT-A1 ([2]; inhibition kinetics): ≤ 40 s; Hill coefficient, UT-A1 ([2]; rat UT-A1, concentration-inhibition fit): 0.9; inhibition mechanism (urea competition) ([2]; urea 80 to 1,600 mM, apparent IC50 independent of urea concentration): non-competitive
3 | O=C1c2cc(NC(=O)C(F)(F)F)ccc2-c2ccc(NC(=O)C(F)(F)F)cc21 [compound 7] | – | much less active | –

Second part, led by results:

Row | [M+H-16] metabolite by LC/MS [1] | UT inhibition activity (in words) [2] | Structure (SMILES) | further results
4 | not detected | – | CC(=O)Nc1cccc(C(=O)c2cccc(NC(C)=O)c2)c1 [compound 22] | –
5 | – | low activity | O=C(CO)Nc1ccc2c(c1)C(=O)c1cc(NC(=O)CO)ccc1-2 [compound 12] | –
6 | – | inactive | CS(=O)(=O)Nc1cccc(C(=O)c2cccc(NS(C)(=O)=O)c2)c1 [compound 24, bismethanesulfonamidobenzophenone] | –
7 | not detected | – | CC(=O)Nc1ccc2c(c1)C(=NO)c1cc(NC(C)=O)ccc1-2 [compound 17] | –
